Experimental findings from patent publication US20040022726A1, “Methods and compositions for intravesical therapy of bladder cancer” (priority 2002, published 2004) are described below.

In this series the test system is superficial cancer of the urinary bladder. The following applies: human, in vivo. How it is done: Antibody-Mediated Radioimmunotherapy Using a Beta-Emitting Radionuclide A patient with a superficial cancer of the urinary bladder is treated with a 1:1 molar mixture of the bispecific antibody hMN-14×679-F(ab′)2 [anti-CEA×anti-HSG] of example 1, and the carrier-free Y-90-IMP 241 bivalent hapten of example 3, above. The premixed radioimmunotherapy agent is introduced into the bladder via a urethral catheter inserted under local anesthetic. Prior to injection, the bladder is drained completely, and 70 mL of the complex in 70 mL 0.9% NaCl (comprising 20 mg of the bispecific antibody and 10 mCi of Y-90 conjugated to the bivalent hapten) are instilled and allowed 90 minutes to localize by binding to tumor tissue. The unbound radiolabeled is bispecific antibody mixture is then allowed to evacuate the bladder through the urethra, by washing out the bladder using 50 mL 0.9% NaCl, leaving the remaining administered radioactivity bound substantially only to tumor cells. Seventy-two hours later, the patient is taken to the operating room, where biopsies of macroscopically normal urothelium and bladder tumor are made. The urothelium is separated from the underlying mucularis layer and assayed in a beta scintillating counter to allow measurement of radioactivity in the tumor and in the normal tissue, and then the preparations were fixed in formalin for histopathological evaluation. […]

Numbered stars: 1 amine (or outer) side, 2 acyl side, 3 side chain; on linkers, the order of the positions; unused ones are H or OH. Square brackets hold non-standard residues; d marks the D form. Side chains are listed from the residue outwards. Peptide text beside a SMILES is read from it. * marks the point of attachment. DOTA = O=C(O)CN1CCN(CC(=O)O)CCN(CC(=O)*)CCN(CC(=O)O)CC1; NH(2-(imidazol-4-yl)ethyl) = c1ncc(CCN*)[nH]1; Suc = O=C(CCC(=O)[*:2])[*:1]

As to `NC(=O)[C@H](CCCCNC(=O)CNC(=O)CCC(=O)NCCc1cnc[nH]1)NC(=O)[C@@H](Cc1ccc(O)cc1)NC(=O)[C@H](CCCCNC(=O)CNC(=O)CCC(=O)NCCc1cnc[nH]1)NC(=O)[C@H](Cc1ccccc1)NC(=O)CN1CCN(CC(=O)O)CCN(CC(=O)O)CCN(CC(=O)O)CC1` [Y-90-IMP 241, metal not drawn] ({DOTA}-FK([Gly-Suc-NH(2-(imidazol-4-yl)ethyl)])[dY]K([Gly-Suc-NH(2-(imidazol-4-yl)ethyl)])-NH2), the “histology of normal urothelium” value is “relatively intact normal urothelium”.
